The target of this assay is T1, MHlip (uncultured bacterium, UniProt D3YKV3).
T1 construct: full length, 262 residues, 28,075 Da (theoretical), C-terminal 6xHis tag (pET22b NdeI/XhoI), E. coli BL21(DE3), Ni-NTA; N-terminus MPFAH
In words: spectrophotometric p-nitrophenol release at […] nm, initial rates, nonlinear Michaelis-Menten fit. It is filed as biochemical. The settings on record: 20 mM Tris-HCl pH 8, 30 °C, pNPA 0-10 mM.

T1 sequence (D3YKV3 1-262 limits assumed): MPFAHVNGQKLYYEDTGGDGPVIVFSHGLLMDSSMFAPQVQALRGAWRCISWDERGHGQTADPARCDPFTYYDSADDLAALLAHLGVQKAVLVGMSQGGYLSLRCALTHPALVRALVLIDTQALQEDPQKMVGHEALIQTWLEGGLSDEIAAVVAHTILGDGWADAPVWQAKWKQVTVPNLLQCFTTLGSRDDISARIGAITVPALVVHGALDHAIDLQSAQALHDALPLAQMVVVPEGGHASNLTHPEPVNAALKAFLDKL

Take `CC(=O)Oc1ccc([N+](=O)[O-])cc1` [pNPA]: the Km was 1.2~0.1 mM.
